In US20050277600A1, “Compositions and methods of use of dimer digallates” (Mars, Incroporated, priority 2004, published 2005):

Experiments:
[1] = test system: human umbilical vein endothelial cell (HUVEC) NO production; experiment: HUVEC NO production (NOx in cell culture medium, chemiluminescence); type: cell-based; conditions: for HUVEC Cells NOx, 24 hr / HUVEC Cells NOx, 5 d / HUVEC Cells NOx, 2 hr: Table 2 summary
Method: Several compounds were investigated for their effect on nitric oxide (NO) production and vasorelaxation using serum-free human umbilical vein endothelial cell (HUVEC) culture system in vitro and rabbit aortic ring model ex vivo, respectively. NO production by endothelial cells and relaxation of pre-constricted aortic rings are two main markers for evaluating vascular effects of test compounds.
HUVECs obtained from a single donor were cultured in serum free, low protein (0.5 g/l), antibiotic-free cell culture medium supplemented with essential growth factors, nutrients and minerals. […] The cell culture medium was substituted with apo-transferrin, superoxide dismutase, and catalase to exclude secondary effects of test compounds involving their auto-oxidation mediated hydrogen peroxide formation.
NO production was evaluated by measuring the total amount of all major nitric oxide end products (NOx, including nitrate, nitrite, nitrosothiols) present in the cell culture medium. […] The amount of NO released from the culture medium was subsequently evaluated by measuring the chemiluminescence emitted during the stoichiometrical reaction between ozone and NO using a NO Analyzer (Sievers Instruments, Inc. Boulder, Colo.).
The data presented herein were obtained from three experiments and were expressed as the concentration of NO present (in μmol/l) (as NOx) in the cell culture medium+/−standard deviation (SD). The data were corrected for the NOx intrinsically present in the fully supplemented cell culture medium and normalized with respect to the volume of media from which the sample was drawn. Data were analyzed using Student's t-test with a 95% level of confidence. P values equal to or less than 0.05 were defined as statistically significant.
For the acute effect test, HUVECs were incubated with the test compounds for 2 hours at concentrations of 100 nM, 1 μM, and 10 μM at 37° C. and 5% CO2. […] (FIG. 1)
For the chronic effect test, HUVECs were incubated with 5 subsequent doses of test compounds, each for 24 hours. After each 24 hour treatment, culture medium was replaced.
For the acute effect test, HUVECs were incubated with a single dose of the test compounds for 24 hours at concentrations of 100 nM, 1 μM, and 10 μM at 37° C. and 5% CO2.

rabbit aortic rings = experiment: Relaxation of norepinephrine pre-constricted rabbit aortic rings ex vivo; conditions: for Max Relaxation: Experiment 3, 10 μM and 100 μM
Method: Several compounds were investigated for their effect on nitric oxide (NO) production and vasorelaxation using serum-free human umbilical vein endothelial cell (HUVEC) culture system in vitro and rabbit aortic ring model ex vivo, respectively. NO production by endothelial cells and relaxation of pre-constricted aortic rings are two main markers for evaluating vascular effects of test compounds. Effect of different procyanidins on endothelium-dependent relaxation was tested in an ex vivo experiment performed as previously described by Karim et al., J. Nutrl Suppl., 130 (8S): […]-[…] (2000), the relevant portions of which are hereby incorporated herein by reference. The advantage of using this method is that it assesses functional vascular end points. […] In summary, rabbit aortic rings were obtained from male New Zealand White rabbits. Following isolation, the rings were mounted in oxygenated Kreb's buffer, and pre-constricted with norepinephrine (NE) (10^-6 M). […] A positive control acetylcholine (10^-9 to 10^-4 M) and a negative control L-NAME were included in the experiment. Use of L-NAME, which is a NO synthase (NOS) inhibitor, allows for differentiating between endothelium dependent and endothelium independent relaxation events. […] The relaxation response was measured as a function of the decrease in the tension (g) exerted by the aortic rings over time […]. Data obtained were expressed as a percent relaxation of the norepinephrine (NE) constricted rings. The same statistical approach as described above was used. Dose response curves were obtained by plotting the average percent relaxation (+/-SE) against the concentrations used.

HUVEC = experiment: HUVEC-mediated MTT reduction (toxic effects); conditions: for cell-mediated MTT reduction: 10 μM (20 μM for the Epicatechin gallates); for cell-mediated reduction of MTT: 1 μM
Method: Cell counts and total protein were used to assess intra-assay variation. Potential toxic effects of tested compounds were also monitored (MTT reduction was measured).

[2] = test system: human umbilical vein endothelial cell (HUVEC) NO production; experiment: HUVEC NO production (NOx in cell culture medium, chemiluminescence); type: cell-based; conditions: Experiment 1, 24 h after single dose, 1 mM (so in the source)
[3] = Experiment 2, single dose, 24 hours, 1 μM
[4] = Experiment 2, chronic, 5 x 24 hours
[5] = Experiment 2, single dose, 24 hours
[6] = Experiment 2, single dose, 24 hours, 10 μM
[7] = Experiment 1, 24 h after single dose, 10 μM
[8] = Experiment 1, acute, 2 hours incubation, 10 μM
[9] = Experiment 1, chronic, 5 subsequent 24 hour doses

O=C(O[C@H]1[C@@H](c2c(O)cc(O)c3c2O[C@H](c2ccc(O)c(O)c2)[C@H](OC(=O)c2cc(O)c(O)c(O)c2)C3)c2c(O)cc(O)cc2O[C@@H]1c1ccc(O)c(O)c1)c1cc(O)c(O)c(O)c1 [C-(4β→8)-EC digallate, (+)-Catechin-(4β,8)-(−)-Epicatechin Digallate]
NO production [1, 3]: statistically significant increases in NO production
HUVEC Cells NOx, 24 hr ([1]; 1 µM): 1 uM, sign. Incr. NOx; 10 uM,
HUVEC Cells NOx, 24 hr ([1]; 10 µM): no sign. effect on NOx, Cell
HUVEC Cells NOx, 5 d [1]: No significant NOx increase;
relaxation response, percent relaxation of NE constricted rings (rabbit aortic rings; Experiment 2, 10^−4 M): 72.4+/−17.4%
relaxation response (rabbit aortic rings; Experiment 2, 10^−5 M): 33.1%
Max Relaxation (rabbit aortic rings): 72%
cell-mediated MTT reduction (HUVEC; [4]): significant decline of cell-mediated MTT reduction
cell-mediated reduction of MTT (HUVEC; [5]): no effect on cell-mediated reduction of MTT
loss of HUVEC MTT reduction as compared to controls (HUVEC; [6]): 47%
HUVEC Cells cell toxicity, 24 hr (HUVEC; Table 2 summary, 24 hr, 10 uM): toxicity

Oc1cc(O)c2c(c1)O[C@H](c1ccc(O)c(O)c1)[C@H](O)[C@H]2c1c(O)cc(O)c2c1O[C@H](c1ccc(O)c(O)c1)[C@@H](O)C2 [EC-(4β→8)-C, (−)-Epicatechin-(4β,8)-(+)-Catechin]
NO production [1, 7]: increased NO production
modulation of NO production [1, 8]: statically significant ability to modulate NO production
HUVEC NO production ([1]; Experiment 2, chronic, 5 subsequent 24 hour doses): increase in NO production which was significantly lower as compared to single dose treatment
NO production [1, 3]: statistically significant increases in NO production
modulation of NO production [1, 6]: statistically significant ability to modulate NO production
HUVEC Cells NOx, 2 hr [1]: 10 uM, sign. NOx
HUVEC Cells NOx, 24 hr [1]: 1 uM and 10 uM, sign. Incr. in
HUVEC Cells NOx, 5 d [1]: 10 uM, significant NOx
NO modulating effect after re-purification ([1]; re-purified compound (first lot contaminated with A1 dimer)): no longer exhibited the NO modulating effect
relaxation response, percent relaxation of NE constricted rings (rabbit aortic rings; Experiment 1, 10^−4 M): 58.36+/−11.35%
relaxation response, percent relaxation of NE constricted rings (rabbit aortic rings; Experiment 1, 10^−5 M): 42.7+/−11.81%
NO production [2]: increased NO production
cell-mediated reduction of MTT (HUVEC; [5]): no effect on cell-mediated reduction of MTT

O=C(O[C@@H]1[C@@H](c2c(O)cc(O)c3c2O[C@H](c2ccc(O)c(O)c2)[C@H](OC(=O)c2cc(O)c(O)c(O)c2)C3)c2c(O)cc(O)cc2O[C@@H]1c1ccc(O)c(O)c1)c1cc(O)c(O)c(O)c1 [EC-(4β→8)-EC digallate, (−)-Epicatechin-(4β,8)-(−)-Epicatechin Digallate]
NO production [1, 7]: increased NO production
modulation of NO production [1, 8]: statically significant ability to modulate NO production
NO production [1, 9]: attenuation of NO production
NO production [1, 3]: statistically significant increases in NO production
modulation of NO production [1, 6]: statistically significant ability to modulate NO production
HUVEC Cells NOx, 2 hr [1]: 10 uM, sign. NOx
HUVEC Cells NOx, 24 hr [1]: 1 and 10 uM, sign. NOx inc.
HUVEC Cells NOx, 5 d [1]: No significant NOx increase;
relaxation response, percent relaxation of NE constricted rings (rabbit aortic rings; Experiment 1, 10^−4 M): 73.55+/−7.08%
relaxation response, percent relaxation of NE constricted rings (rabbit aortic rings; Experiment 1, 10^−5 M): 44.6+/−16.6%
Max Relaxation (rabbit aortic rings): 74%
NO production [2]: increased NO production
decline in MTT reduction (HUVEC; [9]): 55%
MTT reduction (HUVEC; Experiment 2, chronic, 5 x 24 hours, 1 μM or 2 μM for EGC): decline in MTT reduction
cell-mediated MTT reduction (HUVEC; [4]): significant decline of cell-mediated MTT reduction
cell-mediated reduction of MTT (HUVEC; [5]): no effect on cell-mediated reduction of MTT
